The conditions of data set [1]: microsomes, 1 µM.
Description: (§1) Incubations at a test compound of 1 mM in microsomes (0.5 mg/mL) plus cofactor NADPH are performed in 96 well plates at 37° C. on a TECAN (Tecan Group Ltd, Switzerland) automated liquid handling system. The final concentration of the test compound in the incubation is 1 microM. After a 10 minutes preincubation step of the test compound with the microsomes, the enzymatic reaction is started by the addition of cofactors. At 1, 3, 6, 9, 15, 25, 35 and 45 minutes, aliquots of the incubations are removed and quenched with 1:3 (v/v) acetonitrile containing internal standards. Samples are then cooled and centrifuged before analysis of the supernatant by LC-MS/MS.
For data set [2] the following is noted: microsomes, 1 µM. The source holds these as a separate data set.
Description: as §1
The conditions of data set [3]: microsomes, 1 µM. This is another data set of the same source.
Description: as §1
The target in data set [4] is human GPR17 short isoform (Homo sapiens (Human), UniProt Q13304). Kind of data set: GPR17 cAMP assay (hGPR17 cAMP, antagonist mode against EC80 of MDL29,951). It is filed as cell-based. As to conditions: CHO-K1 cells stably expressing human GPR17 short isoform; EC80 of agonist MDL29,951; forskolin 15 μM. A digest of the protocol: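 cAMP was read by competitive TR-FRET after a 30 min room-temperature stimulation: antagonists plus EC80 MDL29,951 and 0.5 mM IBMX, followed 5 min later by 15 μM forskolin. Cells were CHO-K1 with stable human GPR17 short isoform in HBSS/HEPES/BSA, pH 7.4; percent activity versus reference antagonist fitted sigmoidally.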
human GPR17 short isoform, sequence (Q13304 29-367): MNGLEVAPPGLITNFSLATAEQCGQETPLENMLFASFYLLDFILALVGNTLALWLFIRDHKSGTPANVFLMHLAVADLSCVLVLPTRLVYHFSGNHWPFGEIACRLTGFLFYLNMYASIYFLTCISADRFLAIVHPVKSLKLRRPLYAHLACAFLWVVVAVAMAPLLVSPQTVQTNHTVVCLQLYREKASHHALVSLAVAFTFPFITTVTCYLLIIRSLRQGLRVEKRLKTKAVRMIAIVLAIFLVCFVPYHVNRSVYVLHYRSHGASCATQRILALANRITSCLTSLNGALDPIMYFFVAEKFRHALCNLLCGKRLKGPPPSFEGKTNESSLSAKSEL
A general note: cAMP levels reflect the balance of adenylyl cyclase and phosphodiesterase activity.

Data set [5] in a line: Microsome clearance assay, rat. As to conditions: microsomes.
Description: as §1
The nature of data set [6]: Microsome clearance assay, human. The settings on record: microsomes.
Description: as §1
Data set [7] is described as follows: Microsome clearance assay, mouse. As to conditions: microsomes.
Description: as §1

Results on four molecules are retold here after patent US20240025883A1, “PYRIMIDIN-2-YL SULFONAMIDE DERIVATIVES” (Hoffmann-La Roche Inc., priority 2021, published 2024).

As to “N-(4-bromo-2-fluoro-5-methoxy-phenyl)-6-chloro-1H-indole-3-sulfonamide [RE-F]”, the “Microsomal Clearance human” value in data set [1] was found to be 29 μL/min/mg protein. Also, the “Microsomal Clearance rat” value in data set [2] came to 166 μL/min/mg protein. Further, in data set [3], the “Microsomal Clearance mouse” value came out at 129 μL/min/mg protein.

Take `COc1nc(NS(=O)(=O)c2c[nH]c3cc(Cl)ccc23)ncc1Br` [Example 22, N-(5-bromo-4-methoxy-pyrimidin-2-yl)-6-chloro-1H-indole-3-sulfonamide]: in data set [4], the IC50 was 515 nM. In addition, the intrinsic metabolic clearance (microsomal CLint) at 1 µM in data set [5], in data set [6] and in data set [7] was 10 µL/min/mg each time.

Molecule `COc1nc(NS(=O)(=O)c2c[nH]c3cc(Cl)ccc23)ncc1OCCF` [Example 1, 6-chloro-N-[5-(2-fluoroethoxy)-4-methoxy-pyrimidin-2-yl]-1H-indole-3-sulfonamide] gave a concentration for half-maximal inhibition (IC50) in data set [4] of 69 nM. Moreover, the microsomal CLint at 1 µM amounted to 29 µL/min/mg in data set [5], 16 µL/min/mg in data set [6] and 10 µL/min/mg in data set [7].

`COc1nc(NS(=O)(=O)c2c[nH]c3cc(Cl)ccc23)ncc1CC(F)F` [Example 47, 6-chloro-N-[5-(2,2-difluoroethyl)-4-methoxy-pyrimidin-2-yl]-1H-indole-3-sulfonamide]: the IC50 in data set [4] was found to be 19 nM. In addition, the microsomal CLint at 1 µM in data set [5] turned out to be 110 µL/min/mg; in data set [6], 10 µL/min/mg; in data set [7] it was 10 µL/min/mg.

What is called IC50 is the point on the concentration scale where inhibition reaches its midpoint. The microsomal CLint is the rate of metabolic loss divided by the concentration. A lower microsomal CLint goes with slow turnover.
